Here are results for eight compounds from ChEMBL document CHEMBL4251601 (Eur J Med Chem, 2018).

Series [1] in a line: Clearance in Sprague-Dawley rat at 2 mg/kg, iv administered as single dose by LC-MS/MS analysis. The series is classed as ADME, organism-based. To be noted: in vivo.
The nature of series [2]: Stability in CD-1 mouse liver microsomes assessed as parent compound remaining at 10 uM measured after 60 mins in absence of NADPH-regenerating system by LC-MS/MS analysis. To be noted: read-out: Stability. Type of series: ADME, microsome.
Series [3] can be described thus: Half life in CD-1 mouse liver microsomes at 10 uM preincubated for 5 mins followed by NADP addition by LC-MS/MS analysis. Type of series: ADME, microsome.
The nature of series [4]: Stability in CD-1 mouse liver microsomes assessed as parent compound remaining at 10 uM preincubated for 5 mins followed by NADP addition measured after 60 mins by LC-MS/MS analysis. Type of series: ADME, microsome. To be noted: read-out: Stability.
In series [5] the target is Cyclin-dependent kinase 4/cyclin D1 (Homo sapiens, UniProt P11802). The series is described as follows: Inhibition of CDK4/Cyclin-D1 (unknown origin) using histone-H1 as substrate after 90 mins by ADP-Glo assay. The series is classed as protein-complex assay.
Sequence of Cyclin-dependent kinase 4/cyclin D1 (P11802 whole entry): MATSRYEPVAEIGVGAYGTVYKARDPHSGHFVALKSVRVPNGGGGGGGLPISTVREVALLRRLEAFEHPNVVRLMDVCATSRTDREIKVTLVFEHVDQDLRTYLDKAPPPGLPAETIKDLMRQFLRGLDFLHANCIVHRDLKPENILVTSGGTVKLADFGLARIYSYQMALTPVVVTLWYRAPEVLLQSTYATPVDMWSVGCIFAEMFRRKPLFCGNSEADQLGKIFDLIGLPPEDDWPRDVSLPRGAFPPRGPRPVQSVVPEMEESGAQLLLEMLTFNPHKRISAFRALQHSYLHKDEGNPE
Sequence of Cyclin-dependent kinase 4/cyclin D1 (P24385 whole entry, further chain): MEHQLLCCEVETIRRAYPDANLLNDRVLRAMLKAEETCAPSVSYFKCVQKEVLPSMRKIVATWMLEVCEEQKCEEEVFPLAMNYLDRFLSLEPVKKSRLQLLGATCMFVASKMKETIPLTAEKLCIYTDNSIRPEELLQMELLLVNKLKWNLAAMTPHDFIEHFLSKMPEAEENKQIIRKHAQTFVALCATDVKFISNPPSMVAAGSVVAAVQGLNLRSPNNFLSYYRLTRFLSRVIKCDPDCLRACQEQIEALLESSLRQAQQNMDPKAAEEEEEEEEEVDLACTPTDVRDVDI
The nature of series [6]: AUC (0 to 24 hrs) in Sprague-Dawley rat at 2 mg/kg, iv administered as single dose by LC-MS/MS analysis. To be noted: in vivo. More on the design: dose 2 mg/kg, time < 24 hr, route intravenous. Type of series: ADME, organism-based.
Series [7] is described as follows: Volume of distribution at steady state in Sprague-Dawley rat at 2 mg/kg, iv administered as single dose by LC-MS/MS analysis. Type of series: ADME, organism-based. The following applies: in vivo, read-out: Vdss.
The nature of series [8]: (§1) AUC (0 to infinity) in Sprague-Dawley rat at 2 mg/kg, iv administered as single dose by LC-MS/MS analysis. Type of series: ADME, organism-based. Also noted: dose 2 mg/kg, route intravenous, time infinity. The following applies: Sprague-Dawley, in vivo.
A short description of series [9]: Cmax in Sprague-Dawley rat at 5 mg/kg, po administered as single dose by LC-MS/MS analysis. Type of series: ADME, organism-based. More on the design: dose 5 mg/kg, route oral. To be noted: in vivo.
Series [10] in a line: AUC (0 to 24 hrs) in Sprague-Dawley rat at 5 mg/kg, po administered as single dose by LC-MS/MS analysis. The series is classed as ADME, organism-based. More on the design: time < 24 hr, dose 5 mg/kg, route oral. To be noted: in vivo.
In the next series the target is CDK6/cyclin D3 (Homo sapiens, UniProt Q00534). The series is described as follows: Inhibition of CDK6/Cyclin-D3 (unknown origin) using histoneH1 as substrate after 90 mins by ADP-Glo assay. The series is classed as protein-complex assay.
Sequence of CDK6/cyclin D3 (P30281 whole entry): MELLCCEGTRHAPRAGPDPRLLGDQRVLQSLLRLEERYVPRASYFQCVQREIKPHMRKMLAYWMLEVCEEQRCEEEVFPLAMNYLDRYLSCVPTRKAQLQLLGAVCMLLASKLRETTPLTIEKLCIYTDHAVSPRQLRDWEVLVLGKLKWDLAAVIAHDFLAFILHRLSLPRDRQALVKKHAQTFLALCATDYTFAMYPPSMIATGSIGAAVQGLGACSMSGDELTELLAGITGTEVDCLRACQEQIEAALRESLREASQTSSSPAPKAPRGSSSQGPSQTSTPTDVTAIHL
Sequence of CDK6/cyclin D3 (Q00534 whole entry): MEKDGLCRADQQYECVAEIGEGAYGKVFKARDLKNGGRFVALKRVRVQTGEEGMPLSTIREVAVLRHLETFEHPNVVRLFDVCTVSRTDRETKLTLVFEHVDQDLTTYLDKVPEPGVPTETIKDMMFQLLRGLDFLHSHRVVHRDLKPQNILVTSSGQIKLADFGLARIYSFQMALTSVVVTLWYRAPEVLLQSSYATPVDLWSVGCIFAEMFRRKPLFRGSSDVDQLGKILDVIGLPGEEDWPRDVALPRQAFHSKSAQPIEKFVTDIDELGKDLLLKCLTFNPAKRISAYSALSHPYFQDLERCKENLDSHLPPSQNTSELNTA
Series [11] can be described thus: (§2) Oral bioavailability in Sprague-Dawley rat at 5 mg/kg administered as single dose by LC-MS/MS analysis. The series is classed as ADME, organism-based. To be noted: Sprague-Dawley, in vivo.
Series [12] can be described thus: Intrinsic clearance in CD-1 mouse liver microsomes at 10 uM preincubated for 5 mins followed by NADP addition by LC-MS/MS analysis. The series is classed as ADME, microsome. To be noted: read-out: CLH.
Series [13] is described as follows: Half life in Sprague-Dawley rat at 5 mg/kg, po administered as single dose by LC-MS/MS analysis. The following applies: in vivo. The series is classed as ADME, organism-based.
Series [14] in a line: (§3) AUC (0 to infinity) in Sprague-Dawley rat at 5 mg/kg, po administered as single dose by LC-MS/MS analysis. Type of series: ADME, organism-based. Also noted: dose 5 mg/kg, route oral, time infinity. To be noted: Sprague-Dawley, in vivo.
Series [15] in a line: Half life in Sprague-Dawley rat at 2 mg/kg, iv administered as single dose by LC-MS/MS analysis. Type of series: ADME, organism-based. The following applies: in vivo.
The next series has as its system U-87 MG. Kind of series: Antiproliferative activity against human U87MG cells after 72 hrs by DAPI staining based assay. The series is classed as functional, cell-based, U-87MG ATCC.
Series [16] can be described thus: Unbound brain to plasma concentration ratio in mouse at 30 mg/kg, po. The series is classed as ADME, organism-based. The following applies: read-out: K(p,uu,brain).
Series [17] is described as follows: Unbound brain to plasma concentration ratio in mouse at 1 mg/kg, iv after 5 mins. Type of series: ADME, organism-based. The following applies: read-out: K(p,uu,brain).
Series [18] is described as follows: Unbound brain to plasma concentration ratio in CD-1 nude mouse at 100 mg/kg, po. Type of series: ADME, organism-based. The following applies: read-out: K(p,uu,brain).
A further series concerns the target CDK1/Cyclin A (Homo sapiens, UniProt P06493). The series is described as follows: Inhibition of CDK1/Cyclin-A2 (unknown origin) using histone-H1 as substrate after 90 mins by ADP-Glo assay. Type of series: protein-complex assay.
The species named for the next series is Homo sapiens. Kind of series: Selectivity ratio of IC50 for CDK1/Cyclin-A2 (unknown origin) to IC50 for CDK6/Cyclin-D3 (unknown origin).
The subject of series [19] is Rattus norvegicus. The series is described as §1. The series is classed as ADME, organism-based. More on the design: dose 2 mg/kg, route intravenous, time infinity. To be noted: in vivo.
Series [20] concerns Rattus norvegicus. Described as §2. Type of series: ADME, organism-based. To be noted: in vivo.
The subject of series [21] is Rattus norvegicus. Described as §3. The following applies: in vivo. The series is classed as ADME, organism-based. Also noted: dose 5 mg/kg, route oral, time infinity.

Sequence of CDK1/Cyclin A (P06493 whole entry): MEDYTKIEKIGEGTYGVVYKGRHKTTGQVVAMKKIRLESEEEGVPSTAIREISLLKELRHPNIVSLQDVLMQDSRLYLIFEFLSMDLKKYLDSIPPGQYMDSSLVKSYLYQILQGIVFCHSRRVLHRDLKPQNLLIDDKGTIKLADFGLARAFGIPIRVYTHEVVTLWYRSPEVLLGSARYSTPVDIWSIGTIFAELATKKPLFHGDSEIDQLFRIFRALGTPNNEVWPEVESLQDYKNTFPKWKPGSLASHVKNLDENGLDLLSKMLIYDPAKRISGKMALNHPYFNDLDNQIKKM
Sequence of CDK1/Cyclin A (P20248 whole entry, further chain): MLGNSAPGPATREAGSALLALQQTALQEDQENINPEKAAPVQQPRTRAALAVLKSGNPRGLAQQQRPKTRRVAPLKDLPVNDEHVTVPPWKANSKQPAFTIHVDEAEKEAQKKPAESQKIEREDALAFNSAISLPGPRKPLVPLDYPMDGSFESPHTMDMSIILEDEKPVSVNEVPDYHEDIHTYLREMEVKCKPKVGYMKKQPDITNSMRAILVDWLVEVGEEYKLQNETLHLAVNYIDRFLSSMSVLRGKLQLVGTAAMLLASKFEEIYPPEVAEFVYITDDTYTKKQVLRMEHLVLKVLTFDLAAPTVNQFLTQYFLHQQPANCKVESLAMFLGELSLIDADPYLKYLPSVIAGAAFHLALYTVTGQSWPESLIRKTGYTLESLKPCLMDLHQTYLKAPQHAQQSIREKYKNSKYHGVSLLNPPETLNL

In turn, `CCN1CCN(Cc2ccc(Nc3ncc(F)c(-c4cc(F)c5c(c4)C4(CCCC4)C(C)=N5)n3)nc2)CC1` had a clearance in series [1] of 48.9 mL/min/kg. Also, the remaining at 1 h, 10 µM in [2] stood at 81.1%; in series [4], 1%. In [3], this compound came in with a half-life at 10 µM of 0.135 h. Moreover, the IC50 was determined as 12 nM in [5] and 2 nM on CDK6/cyclin D3. In addition, the exposure AUC(0-t) at 24 h came out at 670 ng·h/mL in series [6] and 813 ng·h/mL in [10]. Also, the Vd in [7] was 16.7 L/kg. The values for the AUC(0-inf) in series [8] and in [14] were 686 ng·h/mL and 827 ng·h/mL, respectively. The same compound yielded a Cmax in [9] of 77.1 ng/mL. This compound had a bioavailability in series [11] of 48%. Moreover, the microsomal CLint at 10 µM in [12] was 171 µL/min/mg. The half-life in [13] was 3.6 h; in series [15] it was 4.6 h.

`CCN1CCN(c2ccc(Nc3ncc(F)c(-c4cc(F)c5c(c4)C4(CCCC4)C(C)=N5)n3)nc2)CC1` displayed a clearance in [1] of 15 mL/min/kg. Also, the IC50 in series [5] came out at 18 nM; on CDK6/cyclin D3 it was 16 nM. Besides, the values for the AUC(0-t) at 24 h in series [6] and in [10] were 2110 ng·h/mL and 842 ng·h/mL, respectively. The Vd in [7] stood at 5.7 L/kg. Further, the AUC(0-inf) amounted to 2230 ng·h/mL in series [8] and 1360 ng·h/mL in series [14]. In series [9], this compound showed a Cmax of 70.4 ng/mL. The bioavailability in [11] worked out at 16%. Besides, the half-life in [13] is 9.8 h; in series [15] it was 7 h.

Regarding `CCN1CCN(Cc2ccc(Nc3ncc(F)c(-c4cc(F)c5nc(C)n(C(C)C)c5c4)n3)nc2)CC1` [ABEMACICLIB], the IC50 in the series with U-87 MG stood at 48.1 nM. In addition, the Kp uu in [16] is 0.03.

Take `CC(=O)c1c(C)c2cnc(Nc3ccc(N4CCNCC4)cn3)nc2n(C2CCCC2)c1=O` [PALBOCICLIB]: the Kp uu at 5 min in series [17] worked out at 0.01.

Consider `CN(C)C(=O)c1cc2cnc(Nc3ccc(N4CCNCC4)cn3)nc2n1C1CCCC1` [RIBOCICLIB], for which the Kp uu in series [18] was found to be 0.12.

In the case of `CCN1CCN(Cc2ccc(Nc3ncc(F)c(-c4cc(F)c5c(c4)C(C)(CC)C(C)=N5)n3)nc2)CC1` (stereo unspecified), the results for the half-inhibitory concentration (IC50) (against CDK1/Cyclin A; in series [5]; at CDK6/cyclin D3) were 966 nM, 33 nM and 26 nM, respectively. Further, the clearance in series [1] came to 50.7 mL/min/kg. Moreover, the Ratio IC50 in the series listed under Homo sapiens came out at 37. Also, the results for the AUC(0-t) at 24 h in [6] and in [10] were 685 ng·h/mL and 403 ng·h/mL, respectively. Also, the Vd in [7] came to 25.1 L/kg. Further, the total exposure AUC(0-inf) in series [8] turned out to be 696 ng·h/mL; in series [14], 412 ng·h/mL. In addition, in series [9], the Cmax stood at 58.5 ng/mL. In addition, the bioavailability in series [11] is 23%. In addition, the half-life is 4.7 h in series [13] and 5.3 h in [15].

In series [1], `CCN1CCN(c2ccc(Nc3ncc(F)c(-c4ccc5c(c4)C4(CCCC4)C(C)=N5)n3)nc2)CC1` came in with a clearance of 16.9 mL/min/kg. The Ratio IC50 in the series filed under Homo sapiens was found to be 18. For the same compound, the AUC(0-t) at 24 h amounted to 1900 ng·h/mL in series [6] and 1200 ng·h/mL in series [10]. In series [7], the Vd worked out at 7.1 L/kg. In addition, the AUC in the series on Rattus norvegicus [19] amounted to 2000 ng·h/mL; in the series on Rattus norvegicus [21] it was 3651 ng·h/mL. Further, the highest level in [9] (Cmax) was 99.9 ng/mL. This compound displayed a F in the series on Rattus norvegicus [20] of 25%. The compound further gave a half-life in series [15] of 6.1 h.

Compound `CC1=Nc2c(F)cc(-c3nc(Nc4ccc(N5CCNCC5)cn4)ncc3F)cc2C12CCCC2` came in with a clearance in [1] of 34.7 mL/min/kg. The figures for the remaining at 1 h, 10 µM in series [2] and in [4] were 94.4% and 24%, respectively. The half-life at 10 µM in series [3] amounted to 0.47 h. Moreover, the Ratio IC50 in the series filed under Homo sapiens came out at 25. For the same compound, the IC50 in [5] was 8 nM; against CDK6/cyclin D3, 6 nM. Also, the AUC(0-t) at 24 h was 949 ng·h/mL in [6] and 671 ng·h/mL in series [10]. Besides, the Vd in series [7] was determined as 17.2 L/kg. Besides, the AUC(0-inf) in [8] was 1000 ng·h/mL. Besides, in series [9], the highest level (Cmax) was 56.6 ng/mL. The compound also yielded a bioavailability in series [11] of 28%. The microsomal CLint at 10 µM in [12] is 49.2 µL/min/mg. Further, the half-life in series [15] was 5.8 h.
